For orientation: IC50 means the midpoint of a concentration-inhibition curve.

For data set [1], the target named is T1, hROMK (human Kir1.1) (Homo sapiens (Human), UniProt P48048). In words: cell-based. Format: cell-based. The settings on record: whole-cell manual patch clamp, CHO T-Rex hROMK stable cell line, voltage step to -120 mV, Ba2+-subtracted hROMK current; read-out: ROMK EP IC50. On the technique in general: In patch-clamp work, channel activity is measured electrically.
Procedure: ROMK Manual Patch Clamp Assay
Cell culture conditions: Cells were maintained in conditions similar to those for Thallium flux assay. hROMK channel expression was induced by adding 0.6 μg/ml of Doxycycline 16-24 hrs prior to the experiments. On the day of experiment, the cells were dissociated using Versene, resuspended in growth media and plated onto coverslips 15 minutes prior to use.
Electrophysiology: The coverslip plated with cells was placed in the experiment chamber perfused with bath solution composed of (in mM): 135 NaCl, 5 KCl, 2 CaCl2, 1 MgCl2, 10 HEPES, 5 Glucose (pH 7.4). Patch pipettes with resistance between 2-5 Megaohms, when filled with a solution containing (in mM): 135 KCl, 1 EGTA, 1 MgCl2, 10 HEPES, 2 Na2ATP (pH 7.3), were used to form gigaseals. The cells were voltage clamped at −75 mV in whole-cell configuration using an Axopatch 200b or Multiclamp 700b (Molecular Devices) amplifier controlled by pClamp Software (Molecular Devices). The current was recorded by applying a voltage step to −120 mV every 10 seconds. […] At the end of the experiment, the cells were perfused with bath solution containing 2 mM Ba^2+ to isolate the contribution of hROMK current.
Data analysis: Raw current values (5 traces each for control, different compound concentration and Ba^2+ treatment groups) were exported from Clampfit into Microsoft Excel where the current remaining after application of Ba^2+ was subtracted from raw current to obtain hROMK specific current.

A further data set addresses hERG channels (Homo sapiens (Human), UniProt Q12809). Put plainly: hERG Manual Patch Clamp Assay. It counts as cell-based. The settings on record: human, HEK 293 cells stably expressing hERG channels, pH 7.4, 1 uM, read-out: hERG EP % Inh @ 1 uM. On the technique in general: Block of hERG is tested as a sign of cardiac risk.
Data set [2] addresses T1, hROMK (human Kir1.1). Put plainly: cell-based. The settings on record: CHO T-Rex hROMK stable cell line; thallium flux; 10-point concentration response curve; read-out: Human ROMK Th Flux IC50.
Procedure: Solutions and reagents: Thallium flux assay was performed using FluxOR kit (F10017, Life Technologies). Loading buffer, assay buffer and stimulus buffer were prepared using kit components. HBSS (Hank's balanced salt solution, Cat#14025-092) was purchased separately from Life Technologies.
To prepare 10 ml of loading buffer: 10 μl of FluxOR dye (reconstituted in DMSO) was first added to 100 μl of powerload concentrate and this mix along with 100 μl of Probenicid (100×) was then added to 9.79 ml of HBSS. Assay buffer (10 ml) was prepared by addition of 2 ml of FluxOR chloride free buffer (5×), 100 μl of Probenicid (100×), and 0.2 ml of Ouabain (13.77 mM) to 7.7 ml of deionized water. Stimulus buffer was composed of 15 mM Tl2SO4, 0.75 mM K2SO4 in FluxOR chloride free buffer (diluted to 1× using deionized water). The final concentration of Tl2SO4 and K2SO4 in the assay plate was 3 mM and 0.15 mM, respectively.
Plating and induction of cells: The CHO T-Rex hROMK (human Kir1.1) stable cell line was maintained in Ham's F12 media supplemented with 10% FBS, 1% Penicillin-Streptomycin, 500 μg/ml Zeocin and 10 μg/ml Blasticidin at 37° C. in a 5% CO2 incubator. One day before the experiment, the cells were dissociated by incubation with Versene solution (15040-066, Life Technologies) for 10 minutes at 37° C. followed by addition of growth media. The cell suspension was centrifuged at 1200 rpm for 5 min. After discarding the supernatant, the cells were resuspended in fresh growth media and cell concentration was determined using a hemocytometer. Next, 0.5 μg/ml of Doxycycline was added to the cell suspension to induce hROMK channel expression and 50 μl (10,000 cells/well) of cell suspension was added to each well of a poly-D lysine coated 384 well black, optically clear bottom plate (6007718, Perkin Elmer). The assay plate was kept at 37° C. in a 5% CO2 incubator.
Assay protocol: On the day of experiment, media was removed and loading buffer was added (30 μl/well) to the assay plate. The cells were incubated in the loading buffer for 30 minutes at 37° C. The loading buffer was then replaced by assay buffer (30 μl/well) followed by addition of test compounds or controls. The cells were incubated with compounds for 30 minutes and the plate was then mounted on FlexStation (Molecular Devices) for fluorescence read out with excitation and emission wavelengths at 488 and 525 nm, respectively. Each well was read for 90 sec at 2 sec interval and the stimulus buffer was added after 20 seconds of baseline recording. The final DMSO concentration was either 0.5 or 1% in the assay plate. Positive and negative controls were defined by addition of DMSO or 3 μM of a standard ROMK inhibitor, respectively, to the wells instead of a test compound.
A 10-point concentration response curve was used to estimate the IC50 value of test compounds.

Where two headings read alike, the source gives them in different places.

T1 sequence (P48048 whole entry): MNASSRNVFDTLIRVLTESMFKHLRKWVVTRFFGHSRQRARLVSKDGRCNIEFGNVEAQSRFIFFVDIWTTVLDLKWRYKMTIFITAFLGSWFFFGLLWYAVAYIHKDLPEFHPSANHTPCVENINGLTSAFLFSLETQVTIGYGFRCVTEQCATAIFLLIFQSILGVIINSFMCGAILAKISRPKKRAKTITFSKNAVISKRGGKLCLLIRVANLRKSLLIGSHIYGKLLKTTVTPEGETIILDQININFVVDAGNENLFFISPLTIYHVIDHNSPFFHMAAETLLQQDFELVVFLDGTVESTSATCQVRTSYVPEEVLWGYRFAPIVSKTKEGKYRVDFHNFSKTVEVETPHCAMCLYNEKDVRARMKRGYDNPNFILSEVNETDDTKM
Chain of hERG channels (Q12809 whole entry): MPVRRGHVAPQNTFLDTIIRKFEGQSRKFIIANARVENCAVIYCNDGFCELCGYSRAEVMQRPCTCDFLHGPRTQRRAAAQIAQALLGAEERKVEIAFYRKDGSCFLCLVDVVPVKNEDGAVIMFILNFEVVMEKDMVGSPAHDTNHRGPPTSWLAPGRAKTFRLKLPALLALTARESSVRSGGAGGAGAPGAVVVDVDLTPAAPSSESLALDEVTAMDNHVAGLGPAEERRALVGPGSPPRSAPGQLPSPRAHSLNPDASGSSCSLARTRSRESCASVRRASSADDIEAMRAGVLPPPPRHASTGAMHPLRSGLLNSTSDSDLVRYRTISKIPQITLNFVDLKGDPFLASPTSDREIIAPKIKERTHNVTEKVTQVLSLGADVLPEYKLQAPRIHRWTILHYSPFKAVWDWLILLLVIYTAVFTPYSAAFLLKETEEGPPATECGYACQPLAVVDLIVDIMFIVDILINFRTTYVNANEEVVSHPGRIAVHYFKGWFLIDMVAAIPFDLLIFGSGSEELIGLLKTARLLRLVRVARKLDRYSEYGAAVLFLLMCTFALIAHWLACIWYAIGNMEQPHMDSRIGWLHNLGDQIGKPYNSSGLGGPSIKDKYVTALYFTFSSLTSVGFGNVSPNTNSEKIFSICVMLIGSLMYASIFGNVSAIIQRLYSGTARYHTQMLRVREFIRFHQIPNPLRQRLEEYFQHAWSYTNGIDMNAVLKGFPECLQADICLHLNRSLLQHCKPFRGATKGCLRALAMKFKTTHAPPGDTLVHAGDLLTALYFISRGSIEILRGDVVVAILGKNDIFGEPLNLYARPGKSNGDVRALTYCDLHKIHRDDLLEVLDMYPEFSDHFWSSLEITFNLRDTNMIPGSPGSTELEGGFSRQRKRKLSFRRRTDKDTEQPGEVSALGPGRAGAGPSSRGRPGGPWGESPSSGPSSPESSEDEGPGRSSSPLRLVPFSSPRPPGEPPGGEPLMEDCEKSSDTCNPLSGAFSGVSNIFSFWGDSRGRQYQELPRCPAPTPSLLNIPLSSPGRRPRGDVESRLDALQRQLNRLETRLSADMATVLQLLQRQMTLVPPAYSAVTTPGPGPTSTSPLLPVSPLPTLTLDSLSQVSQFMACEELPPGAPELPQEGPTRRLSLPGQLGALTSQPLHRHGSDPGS

On to `COc1nc(-n2cnc(CN3C[C@@H](c4ccc5c(c4C)COC5=O)N[C@@H](C)C3)c2)ncc1C#N` [Example 103-I, 4-methoxy-2-(4-(((3S,5R)-3-methyl-5-(4-methyl-1-oxo-1,3-dihydroisobenzofur-an-5-yl)piperazin-1-yl)methyl)-1H-imidazol-1-yl)pyrimidine-5-carbonitrile], for which the IC50 at hROMK (human Kir1.1) [1] is 29 nM; at hROMK (human Kir1.1) [2], 25 nM. The inhibition at 1 µM at hERG channels came out at 14%.

For `Cc1cc(-n2cc(CN3C[C@@H](c4ccc5c(c4C)COC5=O)N[C@@H](C)C3)cn2)ncc1C#N` [Example 105-I, 4-methyl-6-(4-(((3S,5R)-3-methyl-5-(4-methyl-1-oxo-1,3-dihydroisobenzofur-an-5-yl)piperazin-1-yl)methyl)-1H-pyrazol-1-yl)nicotinonitrile], the IC50 on hROMK (human Kir1.1) [1] was found to be 11 nM; at hROMK (human Kir1.1) [2] it was 26 nM. In addition, the inhibition at 1 µM at hERG channels turned out to be 9.7%.

Take `COc1cc(-n2ncc(CN3C[C@@H](c4ccc5c(c4C)COC5=O)N[C@@H](C)C3)n2)ncc1C#N` [Example 107-I, 4-methoxy-6-(4-(((3S,5R)-3-methyl-5-(4-methyl-1-oxo-1,3-dihydroisobenzofur-an-5-yl)piperazin-1-yl)methyl)-2H-1,2,3-triazol-2-yl)nicotinonitrile]: the values for the IC50 on hROMK (human Kir1.1) [1] and at hROMK (human Kir1.1) [2] were 18 nM and 26 nM, respectively. Moreover, at hERG channels, the inhibition at 1 µM was 13%.

For the molecule `Cc1nn(-c2ncc(CN3C[C@@H](c4ccc5c(c4C)COC5=O)N[C@@H](C)C3)cn2)cc1C#N` [Example 108-I, 3-methyl-1-(5-(((3S,5R)-3-methyl-5-(4-methyl-1-oxo-1,3-dihydroisobenzofur-an-5-yl)piperazin-1-yl)methyl)pyrimidin-2-yl)-1H-pyrazole-4-carbonitrile], the IC50 was 21 nM at hROMK (human Kir1.1) [1] and 30 nM on hROMK (human Kir1.1) [2]. For the same molecule, the inhibition at 1 µM at hERG channels came out at 8.7%.

Turning to `COc1cc(-n2cnc(CN3C[C@@H](c4ccc5c(c4C)COC5=O)N[C@@H](C)C3)c2)ccn1` [Example 126-I, 5-((2R,6S)-4-((1-(2-methoxypyridin-4-yl)-1H-imidazol-4-yl)methyl)-6-methylpiperazin-2-yl)-4-methylisobenzofuran-1(3H)-one], the IC50 on hROMK (human Kir1.1) [1] was 17 nM; on hROMK (human Kir1.1) [2], 34 nM. In addition, at hERG channels, the inhibition at 1 µM was 7.8%.

As for `Cc1c([C@@H]2CN(Cc3cnn(-c4ccnc(C(F)F)c4)c3)C[C@H](C)N2)ccc2c1COC2=O` [Example 127-I, 5-((2R,6S)-4-((1-(2-(difluoromethyl)pyridin-4-yl)-1H-pyrazol-4-yl)methyl)-6-methylpiperazin-2-yl)-4-methylisobenzofuran-1(3H)-one], the half-maximal inhibitory concentration (IC50) came to 14 nM on hROMK (human Kir1.1) [1] and 21 nM at hROMK (human Kir1.1) [2]. Besides, on hERG channels, the inhibition at 1 µM is 16%.

Regarding `Cc1cc(-c2nc(CN3C[C@@H](c4ccc5c(c4C)COC5=O)N[C@@H](C)C3)co2)ncc1C#N` [Example 130-I], the IC50 came out at 20 nM on hROMK (human Kir1.1) [1] and 52 nM on hROMK (human Kir1.1) [2]. Also, the inhibition at 1 µM on hERG channels is 8.4%.

Consider `Cc1cn(-c2ncc(CN3CCN[C@H](c4ccc5c(c4C)COC5=O)C3)cn2)c(C)n1` [Example 139-I, (R)-5-(4-((2-(2,4-dimethyl-1H-imidazol-1-yl)pyrimidin-5-yl)methyl)piperazin-2-yl)-4-methylisobenzofuran-1(3H)-one], for which the results for the IC50 on hROMK (human Kir1.1) [1] and at hROMK (human Kir1.1) [2] were 30 nM and 36 nM, respectively. For the same molecule, the inhibition at 1 µM at hERG channels is 6.6%.

On to `Cc1ncn(-c2ncc(CN3CCN[C@H](c4ccc5c(c4C)COC5=O)C3)cn2)c1C` [Example 148-I, (R)-5-(4-((2-(4,5-dimethyl-1H-imidazol-1-yl)pyrimidin-5-yl)methyl)piperazin-2-yl)-4-methylisobenzofuran-1(3H)-one], for which the values for the IC50 at hROMK (human Kir1.1) [1] and at hROMK (human Kir1.1) [2] were 19 nM and 27 nM, respectively. The inhibition at 1 µM at hERG channels turned out to be 8.8%.

Take `Cc1nc(-n2ncc(CN3C[C@@H](c4ccc5c(c4C)COC5=O)N[C@@H](C)C3)n2)nc(C)c1C#N` [Example 151-I, 4,6-dimethyl-2-(4-(((3S,5R)-3-methyl-5-(4-methyl-1-oxo-1,3-dihydroisobenzofuran-5-yl)piperazin-1-yl)methyl)-2H-1,2,3-triazol-2-yl)pyrimidine-5-carbonitrile]: the figures for the IC50 on hROMK (human Kir1.1) [1] and on hROMK (human Kir1.1) [2] were 64 nM and 43 nM, respectively. The inhibition at 1 µM at hERG channels turned out to be 5.1%.

Consider `Cc1nc(-n2cnc(CN3C[C@@H](c4ccc5c(c4C)COC5=O)N[C@@H](C)C3)c2)ncc1C#N` [Example 164-I, 4-methyl-2-(4-(((3S,5R)-3-methyl-5-(4-methyl-1-oxo-1,3-dihydroisobenzofuran-5-yl)piperazin-1-yl)methyl)-1H-imidazol-1-yl)pyrimidine-5-carbonitrile], for which the figures for the IC50 at hROMK (human Kir1.1) [1] and at hROMK (human Kir1.1) [2] were 30 nM and 31 nM, respectively. In addition, on hERG channels, the inhibition at 1 µM came to 6%.

Take `Cc1c([C@@H]2CN(Cc3ccc(-c4ccc(S(C)(=O)=O)nc4)nc3)C[C@H](C)N2)ccc2c1COC2=O` [Example 165-I, 4-methyl-5-((2R,6S)-6-methyl-4-((6′-(methylsulfonyl)-[2,3′-bipyridin]-5-yl)methyl)piperazin-2-yl)isobenzofuran-1(3H)-one]: the IC50 is 39 nM at hROMK (human Kir1.1) [1] and 67 nM on hROMK (human Kir1.1) [2]. The inhibition at 1 µM at hERG channels was 5.4%.

With `COc1nc(-n2ncc(CN3C[C@@H](c4ccc5c(c4C)COC5=O)N[C@@H](C)C3)n2)ncc1C#N` [Example 166-I, 4-methoxy-2-(4-(((3S,5R)-3-methyl-5-(4-methyl-1-oxo-1,3-dihydroisobenzofuran-5-yl)piperazin-1-yl)methyl)-2H-1,2,3-triazol-2-yl)pyrimidine-5-carbonitrile], the IC50 was 13 nM at hROMK (human Kir1.1) [1] and 30 nM on hROMK (human Kir1.1) [2]. In addition, on hERG channels, the inhibition at 1 µM came out at 6%.

`COc1nc(-n2cc(CN3C[C@@H](c4ccc5c(c4C)COC5=O)N[C@@H](C)C3)nc2C)ncc1C#N` [Example 167-I, 4-methoxy-2-(2-methyl-4-(((3S,5R)-3-methyl-5-(4-methyl-1-oxo-1,3-dihydroisobenzofuran-5-yl)piperazin-1-yl)methyl)-1H-imidazol-1-yl)pyrimidine-5-carbonitrile]: the IC50 was determined as 18 nM at hROMK (human Kir1.1) [1] and 26 nM at hROMK (human Kir1.1) [2]. Moreover, on hERG channels, the inhibition at 1 µM was 11%.

Take `COc1cc(-n2ncc(CN3CCN[C@H](c4ccc5c(c4C)COC5=O)C3)n2)ncc1C#N` [Example 168-I, (R)-4-methoxy-6-(4-((3-(4-methyl-1-oxo-1,3-dihydroisobenzofuran-5-yl)piperazin-1-yl)methyl)-2H-1,2,3-triazol-2-yl)nicotinonitrile]: the IC50 stood at 29 nM on hROMK (human Kir1.1) [1] and 20 nM at hROMK (human Kir1.1) [2]. In addition, on hERG channels, the inhibition at 1 µM stood at 22%.

In the case of `COc1cc(-n2cc(CN3CC[C@@H](O)[C@H](c4ccc5c(c4C)COC5=O)C3)n(C)c2=O)ncc1C#N` [Example 171-I, 6-(4-(((3R,4R)-4-hydroxy-3-(4-methyl-1-oxo-1,3-dihydroisobenzofuran-5-yl)piperidin-1-yl)methyl)-3-methyl-2-oxo-2,3-dihydro-1H-imidazol-1-yl)-4-methoxynicotinonitrile], the IC50 on hROMK (human Kir1.1) [1] stood at 26 nM; at hROMK (human Kir1.1) [2], 27 nM. The inhibition at 1 µM on hERG channels was 16%.
